Experimental data reported in article PMC7806630, “Molecular basis of the interaction of the human tyrosine phosphatase PTPN3 with the hepatitis B virus core protein” (Scientific Reports, 2021).

What was measured:
[1] = molecular target: PTPN3-PDZ; conditions: previously reported; cited from earlier work
Text: In the present study, we investigated the molecular mechanism of interaction between PTPN3 and HBc. […] We confirmed the interaction by NMR.

[2] = tested on: GIPC1; test: holdup assay, GIPC1 PDZ domain; assay type: binding, human; conditions: biotinylated PBM-HBc peptide, in duplicates, BI > 0.2 significant
[3] = tested on: MAGI3; test: holdup assay, MAGI3 PDZ domain; assay type: binding, human; conditions: biotinylated PBM-HBc peptide, in duplicates, BI > 0.2 significant
[4] = tested on: PTPN4; test: holdup assay, PTPN4 PDZ domain; assay type: binding, human; conditions: biotinylated PBM-HBc peptide, in duplicates, BI > 0.2 significant
[5] = tested on: SNTB1; test: holdup assay, SNTB1 PDZ domain; assay type: binding, human; conditions: biotinylated PBM-HBc peptide, in duplicates, BI > 0.2 significant
[6] = tested on: DLG4_3; test: holdup assay, DLG4_3 PDZ domain; assay type: binding, human; conditions: biotinylated PBM-HBc peptide, in duplicates, BI > 0.2 significant
[7] = tested on: MAGI2; test: holdup assay, MAGI2 PDZ domain; assay type: binding, human; conditions: biotinylated PBM-HBc peptide, in duplicates, BI > 0.2 significant
[8] = tested on: MAGI1; test: holdup assay, MAGI1 PDZ domain; assay type: binding, human; conditions: biotinylated PBM-HBc peptide, in duplicates, BI > 0.2 significant
[9] = tested on: STXB4; test: holdup assay, STXB4 PDZ domain; assay type: binding, human; conditions: biotinylated PBM-HBc peptide, in duplicates, BI > 0.2 significant
[10] = tested on: MPDZ; test: holdup assay, MPDZ PDZ domain; assay type: binding, human; conditions: biotinylated PBM-HBc peptide, in duplicates, BI > 0.2 significant
[11] = tested on: SYNJ2BP; test: holdup assay, SYNJ2BP PDZ domain; assay type: binding, human; conditions: biotinylated PBM-HBc peptide, in duplicates, BI > 0.2 significant
[12] = tested on: DLG4_1; test: holdup assay, DLG4_1 PDZ domain; assay type: binding, human; conditions: biotinylated PBM-HBc peptide, in duplicates, BI > 0.2 significant
[13] = tested on: DLG1_2; test: holdup assay, DLG1_2 PDZ domain; assay type: binding, human; conditions: biotinylated PBM-HBc peptide, in duplicates, BI > 0.2 significant
[14] = tested on: SNX27; test: holdup assay, SNX27 PDZ domain; assay type: binding, human; conditions: biotinylated PBM-HBc peptide, in duplicates, BI > 0.2 significant
[15] = tested on: DLG2_2; test: holdup assay, DLG2_2 PDZ domain; assay type: binding, human; conditions: biotinylated PBM-HBc peptide, in duplicates, BI > 0.2 significant
[16] = tested on: SNTB2; test: holdup assay, SNTB2 PDZ domain; assay type: binding, human; conditions: biotinylated PBM-HBc peptide, in duplicates, BI > 0.2 significant
[17] = tested on: DLG3_2; test: holdup assay, DLG3_2 PDZ domain; assay type: binding, human; conditions: biotinylated PBM-HBc peptide, in duplicates, BI > 0.2 significant
[18] = tested on: DLG4_2_; test: holdup assay, DLG4_2_ PDZ domain; assay type: binding, human; conditions: biotinylated PBM-HBc peptide, in duplicates, BI > 0.2 significant
[19] = tested on: DLG2_1; test: holdup assay, DLG2_1 PDZ domain; assay type: binding, human; conditions: biotinylated PBM-HBc peptide, in duplicates, BI > 0.2 significant
[20] = tested on: DLG1_3; test: holdup assay, DLG1_3 PDZ domain; assay type: binding, human; conditions: biotinylated PBM-HBc peptide, in duplicates, BI > 0.2 significant
[21] = tested on: DLG1_1; test: holdup assay, DLG1_1 PDZ domain; assay type: binding, human; conditions: biotinylated PBM-HBc peptide, in duplicates, BI > 0.2 significant
[22] = tested on: GIPC2; test: holdup assay, GIPC2 PDZ domain; assay type: binding, human; conditions: biotinylated PBM-HBc peptide, in duplicates, BI > 0.2 significant
[23] = tested on: InaDl; test: holdup assay, InaDl PDZ domain; assay type: binding, human; conditions: biotinylated PBM-HBc peptide, in duplicates, BI > 0.2 significant
[24] = tested on: TJP2; test: holdup assay, TJP2 PDZ domain; assay type: binding, human; conditions: biotinylated PBM-HBc peptide, in duplicates, BI > 0.2 significant
[25] = tested on: SNTA1; test: holdup assay, SNTA1 PDZ domain; assay type: binding, human; conditions: biotinylated PBM-HBc peptide, in duplicates, BI > 0.2 significant
[26] = tested on: SIPA1L2; test: holdup assay, SIPA1L2 PDZ domain; assay type: binding, human; conditions: biotinylated PBM-HBc peptide, in duplicates, BI > 0.2 significant
[27] = tested on: SCRIB; test: holdup assay, SCRIB PDZ domain; assay type: binding, human; conditions: biotinylated PBM-HBc peptide, in duplicates, BI > 0.2 significant
[28] = tested on: MAST2; test: holdup assay, MAST2 PDZ domain; assay type: binding, human; conditions: biotinylated PBM-HBc peptide, in duplicates, BI > 0.2 significant
[29] = tested on: human PDZ domains (the PDZome); test: holdup assay, PDZome profile; assay type: binding; conditions: holdup assay against human PDZome, threshold BI = 0.2
[30] = tested on: PTPN3-PDZ; test: NMR binding of full-length HBc (CLPs) to PTPN3-PDZ; set-up: species or system human; conditions: 1H,15N HSQC-TROSY, 600 MHz, 20 °C, PTPN3-PDZ 95 μM, PDZ:HBc final ratio 1:19.4
Experimental: We then tested the complex formation between PTPN3-PDZ and the full-length HBc (Fig. 2c). ^1H, ^15N HSQC-TROSY spectra were recorded on ^15N-labeled PTPN3-PDZ in its free form (red signals in Fig. 2c) and in the presence of the unlabeled HBc full-length protein at different ratios. […] Indeed, wild type (WT) HBc proteins form homodimers and self-assemble into capsids, and the full-length HBc expressed in Escherichia coli mainly assembles into capsid-like particles (CLPs) of 3 to 5 million Da, as measured by analytical ultracentrifugation (AUC) (Fig. 2d). […] The molecular tumbling of PTPN3-PDZ is drastically slowed down when forming high molecular weight complexes with the CLPs, which induced the broadening of the linewidths of the PTPN3-PDZ signals beyond detection. Yet, the TROSY spectra of the complexes did contain a few peaks, which we attributed to regions of PTPN3-PDZ that remained mobile, probably the N-terminal and C-terminal extremities.
The NMR binding experiments between PTPN3-PDZ and full-length HBc as CLPs were performed at 20 °C on a 600-MHz BRUKER Avance III HD spectrometer equipped with a cryoprobe. […] A series of ^1H, ^15N HSQC-TROSY spectra was recorded for different titration points with a ratio PDZ:HBc (mol:mol) 1:0, 1:1.4, 1:5.6, and 1:19.4.

[31] = tested on: GST-PTPN3-PDZ; test: GST pull-down assay with GST-PTPN3-PDZ; assay type: binding, human; conditions: lysate of HeLa S3 cells overexpressing HF-tagged HBc; anti-HA Western blot; GST alone as negative control
Experimental: To investigate whether the PBM at the end of CTD of HBc is accessible to PTPN3 binding during capsid assembly, a glutathione S-transferase (GST) pull-down in vitro assay was performed with lysates of HeLa S3 cells overexpressing the HA-Flag-tagged either wild-type full-length HBc (HF-HBc WT) or its Y132A mutant (HF-HBc Y132A) that forms dimers but is unable to assemble into capsids[35] (Fig. 3a; Supporting Information Fig. 1). GST protein was used as a negative control. The expression of HF-HBc WT and HF-HBc Y132A in the cell lysates was verified by Western blot using the anti-HA antibody (Fig. 3a, lane 5). We also confirmed, using native Western blot, the presence of capsid in the HeLaS3 HBc WT cell lysate and its absence in the HeLaS3 HBc Y132A cell lysate (Fig. 3b).
The construct PTPN3-PDZ tagged with a N-terminal GST (GST-PTPN3-PDZ) was expressed and purified as previously described[25] without TEV cleavage. The additional TEV cleavage step of GST-PTPN3-PDZ provides the GST alone. […]
After lysate binding, the glutathione-agarose beads were washed four times with binding buffer, pelleted, and resuspended in SDS-PAGE sample buffer for Western blotting. After boiling, the bound proteins were analyzed using 12% SDS-PAGE followed by Western blotting using HRP-conjugated HA Epitope Tag monoclonal antibody (26183-HRP, THERMOFISHER) diluted to 1:2000. […]

[32] = molecular target: T1, PDZ domain of PTPN3 (PTPN3-PDZ), residues 489-597 (human, UniProt P26045 489-597); test: crystal structure; co-crystal of PTPN3-PDZ with PBM-HBc peptide added in excess; 20 mM HEPES pH 8, 150 mM NaCl, 0.5 mM TCEP; reservoir 20% PEG 3350, 0.2 M NaBr pH 7; 1.86 Å; conditions: both partners purified
T1 construct: not shown: GST, N-terminal, cleaved
T1 sequence (looked up): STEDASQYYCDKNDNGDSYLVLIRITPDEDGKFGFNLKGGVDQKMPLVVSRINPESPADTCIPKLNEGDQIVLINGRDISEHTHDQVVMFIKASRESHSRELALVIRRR

NH2RRRRSQSRESQCCOOH [PBM-HBc, PBM-HBc peptide (NH2…OOH)]
KD [1]: a few tens of

ETQL [PBM-16E6, PBM of the HPV16 E6 protein, reference compound]
KD [1]: a few tens of

-RRRRSQSRESQC [HBc PBM]
BI (binding intensity) [2]: 0,85 | BI (binding intensity) [3]: 0,78 | BI (binding intensity) [4]: 0,58 | BI (binding intensity) [5]: 0,54 | BI (binding intensity) [6]: 0,53 | BI (binding intensity) [7]: 0,51 | BI (binding intensity) [8]: 0,49 | BI (binding intensity) [9]: 0,47 | BI (binding intensity) [10]: 0,46 | BI (binding intensity) [11]: 0,43 | BI (binding intensity) [12]: 0,43 | BI (binding intensity) [13]: 0,40 | BI (binding intensity) [14]: 0,39 | BI (binding intensity) [15]: 0,38 | BI (binding intensity) [16]: 0,38 | BI (binding intensity) [17]: 0,36 | BI (binding intensity) [18]: 0,35 | BI (binding intensity) [19]: 0,35 | BI (binding intensity) [20]: 0,34 | BI (binding intensity) [21]: 0,34 | BI (binding intensity) [22]: 0,31 | BI (binding intensity) [23]: 0,29 | BI (binding intensity) [24]: 0,27 | BI (binding intensity) [25]: 0,25 | BI (binding intensity) [26]: 0,24 | BI (binding intensity) [27]: 0,23 | BI (binding intensity) [28]: 0,21 | number of potential HBc binders containing PDZ domains [29]: 28

B1: full-length HBc: full-length HBc expressed in Escherichia coli mainly assembles into capsid-like particles (CLPs) (protein)
chain: MDIDPYKEFGATVELLSFLPSDFFPSVRDLLDTASALYREALESPEHCSPHHTALRQAILCWGELMTLATWVGVNLEDPASRDLVVSYVNTNMGLKFRQLLWFHISCLTFGRETVIEYLVSFGVWIRTPPAYRPPNAPILSTLPETTVVRRRGRSPRRRTPSPRRRRSQSPRRRRSQSRESQC
effect on TROSY resonances of PTPN3-PDZ [30]: nearly all of the TROSY resonances observed with free PTPN3-PDZ had disappeared

B2: HBc WT: HA-Flag-tagged wild-type full-length HBc (protein)
chain: B1 chain
binding in GST pull-down [31]: detected only in interaction with GST-PTPN3-PDZ

B3: PBM-HBc peptide (C-terminal PDZ-binding motif of the hepatitis B virus core protein) (peptide)
peptide: RRRRSQSRESQC
notes: also called PBM of HBc; source: synthetic peptide (Fmoc solid phase, PROTEOGENIX)
binding result [32]: binds
